melting point | Structure (SMILES)
37 to 39 °C | Cc1nnc(-c2ccccc2F)o1
97 to 99 °C | CN(C)C(=O)Cc1ccc(N)cc1
147 to 149 °C | COC(=O)c1nnc2ccccc2c1Cl
53 to 55 °C | CC(C)(C)c1ccc(CCCC(=O)O)cc1
105 to 107 °C | CC(C)COc1ccc(C2(C(=O)O)CCC2)cc1
76 to 78 °C | O=C1NCCC=C1Cl
240 to 242 °C | Cc1sc(N)nc1-c1c[nH]c2ncccc12
78 to 80 °C | COC(=O)CNS(=O)(=O)c1ccc(N)cc1
154 to 156 °C | CSc1nc(Cl)cc(NN)n1
89 to 91 °C | CC(C#N)Oc1cc(F)ccc1N (stereo not given)
208 to 210 °C | O=C(O)c1cc(-c2ccc(Cl)c(Cl)c2)ns1
148 to 150 °C | Cc1nn(-c2ccccc2)c(C)c1SCC(=O)O
123 to 125 °C | O=Cc1cccc(OCc2occc2C(=O)O)c1
139 to 141 °C | Cc1ccc(-c2nonc2N)cc1
134 to 136 °C | Cn1cn[nH]c1=O
46 to 48 °C | O=[N+]([O-])c1cc(S(=O)(=O)Cl)c(F)cc1F
83 to 85 °C | CCNC(=O)CN1CCNCC1
199 to 201 °C | CC(C)(C)NS(=O)(=O)Cc1cccc(C(=O)O)c1
109 to 111 °C | CC(O)c1nc2cc(Cl)ccc2s1 (stereo not given)
43 to 47 °C | Cc1nc(Cl)c2c3c(sc2n1)CCCCC3
114 to 116 °C | CCN(CCO)c1ccc(NS(=O)(=O)c2ccc(N)cc2)cc1
129 to 131 °C | Cn1cc(Cl)cc1C(=O)O
132 to 134 °C | Cn1cc(C(=O)CBr)c2ccccc21

melting point | Structure (SMILES)
279 to 281 °C | COc1cc2c(cc1OC)S(=O)(=O)NC2=O
135 to 137 °C | Nc1sc2c(c1-c1nc3ccccc3s1)CCC2
138 to 140 °C | Cn1cc(C2CC2C(=O)O)cn1 (stereo not given)
132 to 136 °C | O=C(O)c1nc[nH]n1
155 to 157 °C | Nc1nnc(C(F)(F)F)[nH]1
278 to 282 °C | Cc1cc2[nH]c(=O)c3ccccc3n2n1
207 to 209 °C | CNC(=O)c1ccc(NC)c([N+](=O)[O-])c1
189 to 191 °C | O=C(O)c1cc2c(cc1O)OCO2
111 to 113 °C | COc1cc(C=O)c(SC)cc1OC
58 to 60 °C | CN1CCN(CC(N)c2ccccc2)CC1 (stereo not given)
259 to 261 °C | O=C(O)c1ccc(N2CCC(O)CC2)cc1
49 to 51 °C | CCC(C)c1csc(NC)n1 (stereo not given)
167 to 170 °C | CC1(C)CC(=O)C=C(N)C1
64 to 66 °C | CC(=O)c1cncs1
125 to 127 °C | CN(C)S(=O)(=O)c1cccc(N)c1
202 to 204 °C | O=C(O)CN1CCC(CO)CC1
87 to 89 °C | CCOC(=O)C1=C(CBr)C(C)(C)OC1=O
253 to 255 °C | Cc1[nH]c(-c2ccnc(Cl)c2)nc(=O)c1C
183 to 185 °C | COCCNS(=O)(=O)c1cc(C(=O)O)ccc1OC
33 to 37 °C | CCOc1ccc(C(C)=O)cc1CN1CCOCC1
184 to 186 °C | Cc1ccc(-n2nnc(C(=O)O)c2C)cc1
188 to 190 °C | CCS(=O)(=O)c1ccc2oc(S)nc2c1
63 to 65 °C | CNC(=O)CCCl

melting point | Structure (SMILES)
64 to 66 °C | CC1CN(C(=O)OC(C)(C)C)CC(C)N1 (stereo not given)
134 to 136 °C | CN(Cc1ccccc1)C(N)=O
242 to 244 °C | O=c1[nH]c2ccc(NCc3ccccc3)cc2[nH]1
74 to 76 °C | COC(=O)c1cc(Cl)ccc1S(=O)(=O)Cl
80 to 82 °C | Cc1ccc(SC2(C(=O)O)CCCC2)cc1
221 to 223 °C | Cc1c(Br)ccc(C(=O)O)c1N
275 to 277 °C | CC(=O)Oc1ccc(-c2ccc(C(=O)O)cc2)cc1
279 to 281 °C | CC1(c2ccc(C(=O)O)cc2)NC(=O)NC1=O (stereo not given)
189 to 191 °C | Cc1ccsc1-c1nnc(N)[nH]1
105 to 107 °C | NC(Cc1ccccn1)=NO
307 to 309 °C | O=C(O)c1ccc2[nH]c(=O)oc2c1
200 to 202 °C | Cc1cc(COc2ccc(C(=O)O)cc2Br)no1
139 to 141 °C | CN1CC(=O)N(CC(=O)O)C1=O
85 to 87 °C | CNCC(O)COc1ccc(C(F)(F)F)cc1 (stereo not given)
195 to 197 °C | Cn1cccc1C(=O)NC1CCNCC1
34 to 36 °C | N#CCc1ncc(C(F)(F)F)cc1Cl
44 to 46 °C | OC(CCc1ccccc1)CCc1ccccc1
109 to 111 °C | O=C(O)c1c(Cl)cccc1Oc1ccc(Cl)cc1
84 to 86 °C | Nc1ccc(-n2nccn2)cc1C(F)(F)F
111 to 113 °C | Cc1nc(Cl)cc(-c2ccncc2)n1
144 to 146 °C | CN(C(=O)c1ccccc1C(=O)O)C1CCCCC1

Further lines, the compound ahead of its results:

Structure (SMILES) | melting point
Nc1ccc(Cl)c(S(N)(=O)=O)c1 | 161 to 163 °C
CC(C)S(=O)(=O)Nc1cccc(O)c1 | 123 to 125 °C
O=C(Nc1ccccc1)C(Cl)C(=O)c1ccccc1 (stereo not given) | 113 to 115 °C
CS(=O)(=O)c1ccc(C(N)=NO)cc1 | 196 to 198 °C
Cc1cn2cc(Br)cc(C)c2n1 | 109 to 111 °C
Nc1ccc(S(=O)(=O)Nc2ccc(Cl)c(C(F)(F)F)c2)cc1 | 144 to 146 °C
COc1ccc(OC)c(C(O)CN)c1 (stereo not given) | 96 to 98 °C
O=S(=O)(Nc1cccc(Cl)c1)c1ccc2oc(S)nc2c1 | 173 to 175 °C
Nc1cc(C(=O)N2CCCC2)ccc1Cl | 137 to 139 °C
Clc1nc(CN2CCCCC2)nc2sc3c(c12)CCC3 | 75 to 77 °C
O=C(CCl)c1c(-c2ccccc2)[nH]c2ccccc12 | 140 to 142 °C
CC(C)C(C#N)NC(=O)c1ccccc1 (stereo not given) | 106 to 108 °C
CNC(CO)c1cccc(Br)c1 (stereo not given) | 79 to 81 °C
NNc1ccc(S(=O)(=O)NC2CCCC2)cn1 | 167 to 169 °C
CCOc1ccccc1C(N)=S | 115 to 117 °C
COCCN(C(=O)CCl)c1c(N)n(CC(C)C)c(=O)[nH]c1=O | 204 to 206 °C
Nc1cc(=O)[nH]c(S)n1 | 300 to 302 °C
Cn1ccnc1SCC(=O)Nc1cc(C(=O)O)ccc1Cl | 223 to 225 °C
O=c1[nH]c(-c2cnccn2)no1 | 232 to 234 °C
O=c1[nH]c(-c2ccncc2)no1 | 259 to 261 °C
NCc1cc2sccc2s1 | 58 to 60 °C
COc1ccc(NC(=O)NCCC(=O)O)cc1 | 174 to 176 °C
Cc1ccc(C(=O)CCC(=O)O)s1 | 99 to 101 °C
NC(=O)NCc1ccccc1F | 147 to 149 °C
O=Cc1ccc(-c2cccc(Br)c2)o1 | 99 to 101 °C
Brc1ccc(-c2nccs2)cc1 | 45 to 47 °C

Structure (SMILES) | melting point
CC(N)c1ccc(-n2cccn2)cc1 (stereo not given) | 48 to 50 °C
Cc1cccc2[nH]c(CCC(=O)O)nc12 | 238 to 240 °C
O=[N+]([O-])c1cn[nH]c1C1CC1 | 95 to 97 °C
NC(=O)c1ccc(CSc2ccc(C(=O)O)cc2)cc1 | 304 to 306 °C
O=C(O)c1ccc2[nH]c(=O)[nH]c2c1 | 373 to 375 °C
O=C(O)CCc1nnc[nH]1 | 127 to 129 °C
CCOC(=O)c1ccc(S(=O)(=O)N2CCC(C(=O)O)CC2)cc1 | 219 to 221 °C
CC(C)(C)C(=O)N1CCCC(C(=O)O)C1 (stereo not given) | 179 to 181 °C
Cc1c(NS(=O)(=O)c2ccc(N)c(N)c2)c(=O)n(-c2ccccc2)n1C | 233 to 235 °C
O=Cc1ccc(N2CCOCC2)c(F)c1 | 68 to 70 °C
NCc1c[nH]nn1 | 211 to 213 °C
CC(C)(CO)C(CN)c1ccccc1 (stereo not given) | 116 to 118 °C
O=C(O)CCOc1ccc(Oc2ccccc2)cc1 | 118 to 120 °C
O=C(O)CN1C(=O)c2ccc([N+](=O)[O-])cc2C1=O | 197 to 199 °C
Nc1c(NCC2CCCO2)c(=O)[nH]c(=O)n1Cc1ccccc1 (stereo not given) | 221 to 223 °C
CCN(CC)S(=O)(=O)c1ccc(C)c(C(=O)O)c1 | 140 to 142 °C
CC(=NO)c1ccc(OCc2ccc(F)cc2)cc1 | 151 to 153 °C
Cc1ccc(Oc2cc(C#N)ccn2)cc1C | 63 to 65 °C
Sc1nccn1Cc1ccccc1 | 146 to 148 °C
CCC(=O)NNC(=O)C(C)Cl (stereo not given) | 157 to 159 °C
CC(C)C(NC(=O)c1ccc(Cl)cc1)C(=O)O (stereo not given) | 197 to 199 °C
Cc1nc[nH]c1C | 103 to 105 °C
CC(Cl)C(=O)Nc1ccccc1Cc1ccccc1 (stereo not given) | 144 to 146 °C
O=S(=O)(Cl)CCOc1ccc(F)cc1 | 34 to 36 °C
Nc1cccc(S(=O)(=O)Nc2cccc(C(F)(F)F)c2)c1 | 98 to 100 °C
COCCOc1nc(C(=O)O)cc2ccccc12 | 145 to 147 °C

Structure (SMILES) | melting point
COc1ccc(-n2ccnc2S)cc1 | 175 to 177 °C
O=C(c1ccc(F)cc1)c1ccc(Cl)cc1 | 115 to 117 °C
CCCOc1ccc(C(F)(F)F)cc1NC(=O)CCl | 73 to 75 °C
Brc1ccc2c(c1)CCCCN2 | 52 to 54 °C
O=C(CCl)NCCOc1cccc(C(F)(F)F)c1 | 43 to 45 °C
Cc1ccc(S(=O)(=O)NCCCC(=O)O)cc1 | 138 to 140 °C
O=C(O)c1ccc(S(=O)(=O)c2ccccc2)s1 | 192 to 194 °C
Nc1noc(-c2ccsc2)n1 | 196 to 198 °C
CN1CCN(c2cccc(Cl)c2C=O)CC1 | 80 to 82 °C
O=C(O)CSCc1cccc(Cl)c1 | 74 to 76 °C
ClCc1cc2c(cc1Cl)OCCCO2 | 55 to 57 °C
FC(F)(F)C1(NCc2ccccc2)CCC2(CC1)OCCO2 | 83 to 85 °C
CC(C)n1cnnc1S | 116 to 118 °C
CCn1c(S)nnc1-c1ccc(OC)cc1 | 178 to 180 °C
Sc1nc2cc(Cl)ccc2o1 | 277 to 279 °C
CS(=O)(=O)c1nc2cc(Br)cnc2[nH]1 | 222 to 224 °C
O=C(O)c1ccccc1OCc1ccc(Cl)cc1 | 85 to 87 °C
Clc1cccc(-c2ccccn2)n1 | 62 to 64 °C
NNc1c([N+](=O)[O-])cc(C(F)(F)F)cc1[N+](=O)[O-] | 129 to 131 °C
O=C(CCl)c1ccc[nH]1 | 114 to 116 °C
O=C1COc2c(Cl)cccc21 | 108 to 110 °C
O=C(O)CCCC(=O)Nc1cccnc1N1CCCC1 | 142 to 144 °C
ON=Cc1ccc(OCc2ccncc2)cc1 | 163 to 165 °C
O=C(O)C=Cc1cscn1 | 174 to 176 °C
O=c1[nH]c(-c2ccncc2)cs1 | 303 to 305 °C
CC(C)(C)c1ccc(CCCCC(=O)O)cc1 | 71 to 73 °C
